Measurements published in ChEMBL document CHEMBL1201862, “PubChem BioAssay data set” (2004).
Calls of active or inactive are those of the source.

What was measured:
[1] = target: Dual specificity tyrosine-phosphorylation-regulated kinase 1A (Rattus norvegicus, UniProt Q63470); assay type: biochemical, Homo sapiens
[2] = target: Mitochondrial peptide methionine sulfoxide reductase (Bos taurus, UniProt P54149); assay type: functional;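 further: absorbance read-out, biochemical high-throughput dose-response screen for MsrA inhibitors, confirmatory; recombinant bovine MsrA coupled to E. coli TrxB with NADPH and selenocystamine; potency is for inhibitors of MsrA activity on DMSO substrate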
Cytochrome P450 2D6 = Cytochrome P450 2D6 (Homo sapiens, UniProt P10635);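 further: CYP2D6 member of a cytochrome P450 panel assay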
[3] = NIH-3T3 fibroblast cytotoxicity, dose response, cytotoxicity control, cell-based, fluorescence, Alamar Blue, secondary assay (AID 2327); assay type: functional;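 further: NIH-3T3 mouse fibroblasts cultured with fluconazole at 8 µg/mL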
[4] = C. albicans growth with fluconazole, confirmation, fluorescence, retest (AID 2467); assay type: functional, cell-based
[5] = target: T1, Serine/threonine-protein phosphatase (Candida dubliniensis (strain CD36 / CBS 7987 / NCPF 3949 / NRRLY-17841) (Yeast), UniProt B9W6M3); test: calcineurin pathway inhibitors in yeast reporter, dose response, S. cerevisiae, CDRE-lacZ, luminescence, secondary (AID 2388); assay type: functional, cell-based;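 further: yeast reporter cells carrying a calcineurin-responsive lacZ construct stimulated with calcium chloride; luminescent beta-galactosidase reporter signal in whole cells rather than isolated phosphatase activity; potency for inhibition where a drop in reporter signal means calcineurin blockade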
T1 sequence (B9W6M3 whole entry): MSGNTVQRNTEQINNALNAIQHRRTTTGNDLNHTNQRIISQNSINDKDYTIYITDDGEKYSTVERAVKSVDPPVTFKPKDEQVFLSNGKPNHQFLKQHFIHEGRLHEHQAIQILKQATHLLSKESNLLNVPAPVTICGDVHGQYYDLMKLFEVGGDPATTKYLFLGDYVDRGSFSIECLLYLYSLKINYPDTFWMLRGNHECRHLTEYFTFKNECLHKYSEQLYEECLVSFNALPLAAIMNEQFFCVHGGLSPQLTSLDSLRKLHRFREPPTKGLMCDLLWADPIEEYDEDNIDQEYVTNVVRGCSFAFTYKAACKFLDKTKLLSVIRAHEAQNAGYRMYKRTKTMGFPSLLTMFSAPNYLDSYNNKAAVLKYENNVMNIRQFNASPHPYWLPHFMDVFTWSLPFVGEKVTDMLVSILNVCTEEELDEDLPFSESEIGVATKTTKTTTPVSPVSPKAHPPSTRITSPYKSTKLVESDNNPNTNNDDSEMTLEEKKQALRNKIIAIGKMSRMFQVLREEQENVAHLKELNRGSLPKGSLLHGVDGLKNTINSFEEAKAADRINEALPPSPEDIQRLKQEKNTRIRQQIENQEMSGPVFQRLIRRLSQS

[6] = target: ATP-dependent molecular chaperone HSP82 (Candida albicans (strain WO-1) (Yeast), UniProt C4YTQ8); test: loss of DOC-induced GRE-beta-galactosidase reporter signal, dose response, Hsp90 inhibitor project, S. cerevisiae, luminescence (AID 2400); assay type: functional, cell-based;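 further: beta-galactosidase luminescence from glucocorticoid response element reporter as proxy for Hsp90 function; inhibitor potency where signal loss means Hsp90 inhibition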
BJ [7] = test: cytotoxicity toward BJ-TERT fibroblasts, dose response, cell-based, RAS-independent, luminescence (AID 1933); assay type: functional; conditions: Homo sapiens
BJ [8] = test: cells; assay type: functional, cell-based; conditions: Homo sapiens
BJ [9] = test: cytotoxicity toward BJ-TERT-LT-ST fibroblasts, dose response, cell-based, RAS-independent, luminescence (AID 1935); assay type: functional; conditions: Homo sapiens;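 further: BJ fibroblasts immortalized with TERT plus LT and ST oncogenes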
[10] = cytotoxicity toward DRD oncogenic fibroblasts, dose response, cell-based, non-viral oncogenic, luminescence (AID 1934); assay type: functional; conditions: Homo sapiens
BJ [11] = test: cytotoxicity toward Ras-transformed BJeLR fibroblasts, dose response, cell-based, alamar blue fluorescence, cherrypicked samples (AID 2631); assay type: functional; conditions: Homo sapiens;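 further: confirmatory dose-response assay in RAS-dependent BJ fibroblasts engineered with TERT, LT and ST, with cytotoxicity read by fluorescence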
INS1 = test: beta cell apoptosis inhibitors, cytokine rescue, dose response, luminescence, retest (AID 449756); assay type: functional, cell-based; conditions: Rattus norvegicus;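 further: cell death triggered by IL-1 beta plus TNF-alpha plus IFN-gamma mixture; protective hits raise ATP signal compared with cytokine alone wells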
[12] = target: T2, Sentrin-specific protease 8 (Homo sapiens, UniProt Q96LD8); test: SENP8 protease inhibitors, SAR follow-up, biochemical, luminescence (AID 504501); assay type: functional
T2 sequence (Q96LD8 whole entry): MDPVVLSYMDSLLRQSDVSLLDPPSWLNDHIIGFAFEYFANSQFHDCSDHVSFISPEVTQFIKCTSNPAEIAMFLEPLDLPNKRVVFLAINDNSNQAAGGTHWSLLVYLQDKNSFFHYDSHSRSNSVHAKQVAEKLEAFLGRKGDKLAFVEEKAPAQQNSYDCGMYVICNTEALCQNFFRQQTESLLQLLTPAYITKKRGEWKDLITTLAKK

Caspase-3 = target: T3, Caspase-3 (Homo sapiens, UniProt P42574); test: SAR Analysis of small molecule inhibitors of Sentrin-specific proteases (SENPs) using a Caspase-3 Selectivity assay. [Related pubchem assays (depositor defined):AID2540, AID2599, AID434973, AID489001]; assay type: functional
T3 sequence (P42574 whole entry): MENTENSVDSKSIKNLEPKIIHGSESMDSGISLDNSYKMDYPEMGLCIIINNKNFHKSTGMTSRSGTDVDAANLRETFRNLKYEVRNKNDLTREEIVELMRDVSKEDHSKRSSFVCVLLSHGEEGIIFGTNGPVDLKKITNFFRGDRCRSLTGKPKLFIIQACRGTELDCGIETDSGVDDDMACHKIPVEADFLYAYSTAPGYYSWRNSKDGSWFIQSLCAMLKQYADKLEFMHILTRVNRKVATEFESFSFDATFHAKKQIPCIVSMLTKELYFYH

[13] = target: T4, Sentrin-specific protease 6 (Homo sapiens, UniProt Q9GZR1); test: SAR Analysis of small molecule inhibitors of Sentrin-specific protease 6 (SENP6) using a Luminescent assay. [Related pubchem assays (depositor defined):AID2582, AID2599]; assay type: functional
T4 sequence (Q9GZR1 whole entry): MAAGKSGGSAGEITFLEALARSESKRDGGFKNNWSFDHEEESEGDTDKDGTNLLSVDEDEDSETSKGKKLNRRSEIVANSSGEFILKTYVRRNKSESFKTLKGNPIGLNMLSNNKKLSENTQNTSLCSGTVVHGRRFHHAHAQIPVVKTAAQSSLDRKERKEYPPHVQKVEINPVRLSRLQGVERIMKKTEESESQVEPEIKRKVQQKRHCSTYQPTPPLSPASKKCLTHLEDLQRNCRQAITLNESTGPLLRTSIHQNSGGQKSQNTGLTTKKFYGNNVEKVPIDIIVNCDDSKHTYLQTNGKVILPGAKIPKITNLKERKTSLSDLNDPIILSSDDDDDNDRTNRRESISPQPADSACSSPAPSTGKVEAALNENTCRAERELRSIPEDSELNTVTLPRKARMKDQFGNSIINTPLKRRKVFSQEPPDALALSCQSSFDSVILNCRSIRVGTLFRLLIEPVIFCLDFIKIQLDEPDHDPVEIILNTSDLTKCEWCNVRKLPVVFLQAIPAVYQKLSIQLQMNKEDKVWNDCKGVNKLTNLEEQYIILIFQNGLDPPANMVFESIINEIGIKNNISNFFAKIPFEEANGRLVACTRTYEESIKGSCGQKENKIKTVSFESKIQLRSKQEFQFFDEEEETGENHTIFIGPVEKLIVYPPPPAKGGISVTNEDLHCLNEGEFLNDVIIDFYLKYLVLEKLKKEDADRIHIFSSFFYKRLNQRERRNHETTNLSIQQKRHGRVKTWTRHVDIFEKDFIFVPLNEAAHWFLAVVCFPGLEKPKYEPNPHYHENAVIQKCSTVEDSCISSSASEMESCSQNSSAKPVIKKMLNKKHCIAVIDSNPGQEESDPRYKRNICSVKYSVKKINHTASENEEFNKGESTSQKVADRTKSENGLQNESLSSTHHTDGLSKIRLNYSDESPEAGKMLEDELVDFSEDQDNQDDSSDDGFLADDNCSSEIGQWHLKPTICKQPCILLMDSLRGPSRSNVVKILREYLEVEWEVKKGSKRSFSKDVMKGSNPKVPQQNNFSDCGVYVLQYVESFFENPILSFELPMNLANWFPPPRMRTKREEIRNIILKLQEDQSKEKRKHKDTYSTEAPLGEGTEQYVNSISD

[14] = target: T5, Sentrin-specific protease 7 (Homo sapiens, UniProt Q9BQF6); test: SENP7 protease inhibitors, SAR follow-up, biochemical, luminescence (AID 504497); assay type: functional
T5 sequence (Q9BQF6 whole entry): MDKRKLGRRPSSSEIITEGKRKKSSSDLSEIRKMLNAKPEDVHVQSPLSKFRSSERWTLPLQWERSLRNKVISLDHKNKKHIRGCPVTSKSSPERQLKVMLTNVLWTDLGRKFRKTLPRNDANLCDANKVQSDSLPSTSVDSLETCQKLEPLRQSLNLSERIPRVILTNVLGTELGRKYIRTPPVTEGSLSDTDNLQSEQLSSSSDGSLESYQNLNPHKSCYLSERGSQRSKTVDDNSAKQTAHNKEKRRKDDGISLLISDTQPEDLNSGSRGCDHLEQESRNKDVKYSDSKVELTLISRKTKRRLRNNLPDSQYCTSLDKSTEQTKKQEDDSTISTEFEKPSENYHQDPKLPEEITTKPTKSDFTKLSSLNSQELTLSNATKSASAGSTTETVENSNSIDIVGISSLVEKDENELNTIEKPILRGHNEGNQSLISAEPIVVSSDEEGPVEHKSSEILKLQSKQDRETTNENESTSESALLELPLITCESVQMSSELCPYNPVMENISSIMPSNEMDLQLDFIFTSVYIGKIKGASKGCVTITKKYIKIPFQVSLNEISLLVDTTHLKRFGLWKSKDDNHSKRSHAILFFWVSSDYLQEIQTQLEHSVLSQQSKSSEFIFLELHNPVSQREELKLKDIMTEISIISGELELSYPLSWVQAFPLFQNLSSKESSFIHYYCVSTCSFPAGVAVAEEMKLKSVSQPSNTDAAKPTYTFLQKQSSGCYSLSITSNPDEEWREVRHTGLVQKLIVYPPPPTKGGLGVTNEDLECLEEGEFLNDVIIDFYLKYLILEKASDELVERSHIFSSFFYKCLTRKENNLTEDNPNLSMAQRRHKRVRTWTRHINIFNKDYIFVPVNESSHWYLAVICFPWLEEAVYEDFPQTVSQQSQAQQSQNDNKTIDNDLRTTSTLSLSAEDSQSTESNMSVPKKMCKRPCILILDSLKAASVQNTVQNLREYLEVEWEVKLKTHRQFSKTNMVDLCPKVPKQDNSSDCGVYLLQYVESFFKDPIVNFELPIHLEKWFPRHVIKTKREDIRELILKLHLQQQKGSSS

[15] = target: T6, Apoptotic protease-activating factor 1 (Homo sapiens, UniProt O14727); assay type: functional
T6 sequence (O14727 whole entry): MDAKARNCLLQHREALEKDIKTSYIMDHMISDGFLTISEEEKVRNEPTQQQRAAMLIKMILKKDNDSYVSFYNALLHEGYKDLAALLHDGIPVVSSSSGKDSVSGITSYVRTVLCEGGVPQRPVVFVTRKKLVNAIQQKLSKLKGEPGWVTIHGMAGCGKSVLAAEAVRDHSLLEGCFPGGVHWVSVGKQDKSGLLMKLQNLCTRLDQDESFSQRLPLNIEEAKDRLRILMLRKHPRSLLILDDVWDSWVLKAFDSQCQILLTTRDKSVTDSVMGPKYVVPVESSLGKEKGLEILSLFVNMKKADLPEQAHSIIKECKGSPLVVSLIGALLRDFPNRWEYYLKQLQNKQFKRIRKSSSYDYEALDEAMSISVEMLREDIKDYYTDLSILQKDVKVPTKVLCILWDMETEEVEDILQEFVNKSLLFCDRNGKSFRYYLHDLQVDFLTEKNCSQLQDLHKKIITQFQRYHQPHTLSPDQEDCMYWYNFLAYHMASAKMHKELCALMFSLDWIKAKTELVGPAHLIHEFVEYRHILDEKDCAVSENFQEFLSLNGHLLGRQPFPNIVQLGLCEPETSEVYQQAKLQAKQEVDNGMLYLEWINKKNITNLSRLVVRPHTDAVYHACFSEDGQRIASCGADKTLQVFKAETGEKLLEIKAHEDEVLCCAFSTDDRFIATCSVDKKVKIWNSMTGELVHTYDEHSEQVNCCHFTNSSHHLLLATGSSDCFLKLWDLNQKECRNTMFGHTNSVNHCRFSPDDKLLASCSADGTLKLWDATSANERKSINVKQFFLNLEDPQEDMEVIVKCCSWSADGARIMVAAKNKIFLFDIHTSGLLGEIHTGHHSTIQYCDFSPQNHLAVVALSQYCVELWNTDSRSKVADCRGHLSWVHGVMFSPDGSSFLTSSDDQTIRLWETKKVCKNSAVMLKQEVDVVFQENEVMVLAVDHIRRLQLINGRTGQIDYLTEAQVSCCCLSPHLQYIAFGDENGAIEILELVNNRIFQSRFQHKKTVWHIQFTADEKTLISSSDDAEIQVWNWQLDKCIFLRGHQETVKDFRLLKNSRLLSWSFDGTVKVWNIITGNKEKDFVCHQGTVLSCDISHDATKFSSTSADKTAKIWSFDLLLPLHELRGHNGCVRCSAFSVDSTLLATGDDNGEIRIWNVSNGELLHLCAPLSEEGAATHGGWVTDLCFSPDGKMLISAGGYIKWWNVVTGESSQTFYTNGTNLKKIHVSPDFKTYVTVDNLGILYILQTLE

[16] = target: Potassium voltage-gated channel subfamily KQT member 2 (Rattus norvegicus, UniProt O88943); test: KCNQ2 potassium channel inhibitors, dose response, cell-based, automated electrophysiology, set II, rat KCNQ2 (AID 588637); assay type: functional
H9c2 = test: cells; assay type: functional, cell-based; conditions: Rattus norvegicus, H9c2, Myocardium

Potassium voltage-gated channel subfamily KQT member 2, sequence (O88943 whole entry): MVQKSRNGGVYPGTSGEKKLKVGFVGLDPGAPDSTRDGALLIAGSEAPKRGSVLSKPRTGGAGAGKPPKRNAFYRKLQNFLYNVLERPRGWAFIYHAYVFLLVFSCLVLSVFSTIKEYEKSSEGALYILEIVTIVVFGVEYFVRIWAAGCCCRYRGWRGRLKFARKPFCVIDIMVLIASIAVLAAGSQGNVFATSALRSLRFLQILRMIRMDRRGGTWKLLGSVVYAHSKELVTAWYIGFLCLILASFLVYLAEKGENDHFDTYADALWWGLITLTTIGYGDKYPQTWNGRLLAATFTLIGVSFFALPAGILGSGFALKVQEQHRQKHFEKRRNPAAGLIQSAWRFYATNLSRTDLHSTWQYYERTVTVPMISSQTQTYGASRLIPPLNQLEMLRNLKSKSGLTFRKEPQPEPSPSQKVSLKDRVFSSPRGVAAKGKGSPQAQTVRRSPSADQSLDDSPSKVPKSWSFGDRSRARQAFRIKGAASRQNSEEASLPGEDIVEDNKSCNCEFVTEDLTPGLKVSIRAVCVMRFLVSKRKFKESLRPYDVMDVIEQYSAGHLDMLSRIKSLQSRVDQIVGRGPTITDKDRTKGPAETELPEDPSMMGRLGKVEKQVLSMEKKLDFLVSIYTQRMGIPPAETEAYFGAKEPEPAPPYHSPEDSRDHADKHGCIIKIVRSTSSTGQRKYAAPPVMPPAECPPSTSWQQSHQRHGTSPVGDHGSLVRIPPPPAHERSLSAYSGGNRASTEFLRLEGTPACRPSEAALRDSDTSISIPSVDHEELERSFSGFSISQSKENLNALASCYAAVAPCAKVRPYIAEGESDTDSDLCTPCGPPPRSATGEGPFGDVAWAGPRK
Mitochondrial peptide methionine sulfoxide reductase, sequence (P54149 whole entry): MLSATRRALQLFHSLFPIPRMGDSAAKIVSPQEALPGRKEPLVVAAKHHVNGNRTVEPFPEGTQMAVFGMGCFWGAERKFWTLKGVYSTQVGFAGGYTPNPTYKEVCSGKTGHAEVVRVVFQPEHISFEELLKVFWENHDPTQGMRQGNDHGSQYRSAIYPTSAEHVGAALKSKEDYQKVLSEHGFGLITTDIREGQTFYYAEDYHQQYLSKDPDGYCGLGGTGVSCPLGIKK
Cytochrome P450 2D6, sequence (P10635 whole entry): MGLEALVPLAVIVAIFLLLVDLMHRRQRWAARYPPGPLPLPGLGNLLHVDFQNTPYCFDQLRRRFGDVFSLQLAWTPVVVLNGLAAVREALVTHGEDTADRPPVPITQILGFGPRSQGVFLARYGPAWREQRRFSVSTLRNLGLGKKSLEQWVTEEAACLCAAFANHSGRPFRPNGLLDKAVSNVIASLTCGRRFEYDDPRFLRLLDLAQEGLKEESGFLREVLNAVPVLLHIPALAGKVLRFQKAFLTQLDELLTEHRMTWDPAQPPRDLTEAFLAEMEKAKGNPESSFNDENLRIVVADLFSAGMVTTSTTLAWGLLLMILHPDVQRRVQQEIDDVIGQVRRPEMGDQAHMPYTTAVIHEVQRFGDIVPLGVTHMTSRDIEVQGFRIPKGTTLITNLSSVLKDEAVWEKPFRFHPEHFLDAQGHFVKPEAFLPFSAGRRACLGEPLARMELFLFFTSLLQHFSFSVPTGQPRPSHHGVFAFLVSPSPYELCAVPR
ATP-dependent molecular chaperone HSP82, sequence (C4YTQ8 whole entry): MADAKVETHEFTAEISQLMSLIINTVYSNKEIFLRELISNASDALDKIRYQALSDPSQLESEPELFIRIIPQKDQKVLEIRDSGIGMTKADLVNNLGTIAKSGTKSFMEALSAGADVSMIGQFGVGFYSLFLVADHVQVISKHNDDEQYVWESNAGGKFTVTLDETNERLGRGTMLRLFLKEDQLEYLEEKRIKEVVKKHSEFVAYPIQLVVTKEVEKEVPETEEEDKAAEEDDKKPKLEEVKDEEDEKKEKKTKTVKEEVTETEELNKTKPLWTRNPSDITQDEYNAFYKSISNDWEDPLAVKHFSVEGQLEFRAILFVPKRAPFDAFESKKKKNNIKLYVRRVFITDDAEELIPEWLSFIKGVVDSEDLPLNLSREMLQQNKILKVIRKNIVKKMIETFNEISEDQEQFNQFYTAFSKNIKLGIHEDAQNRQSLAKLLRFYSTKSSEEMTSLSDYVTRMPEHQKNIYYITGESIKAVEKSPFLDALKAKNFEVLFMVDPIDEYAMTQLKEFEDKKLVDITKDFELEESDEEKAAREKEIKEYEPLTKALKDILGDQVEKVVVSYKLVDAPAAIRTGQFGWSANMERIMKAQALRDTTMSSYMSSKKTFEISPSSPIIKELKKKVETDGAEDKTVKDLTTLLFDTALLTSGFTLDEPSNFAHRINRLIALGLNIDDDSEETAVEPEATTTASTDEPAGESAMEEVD

## COc1cc2c(cc1O)C[C@H]1c3c(cc(O)c(OC)c3-2)CCN1C [BOLDINE]
[1]
  AC50: 4.84 µM (active)
[2]
  IC50: 47.8 µM (inactive)
Cytochrome P450 2D6
  AC50: 6.31 µM (inconclusive)

## CS(=O)(=O)NN1C(=O)c2ccccc2NC1c1cccc2cccnc12 (stereo unspecified)
[3]
  EC50: > 160 µM (inactive)
[4]
  EC50: 0.697 µM (active)
[5]
  EC50: > 180 µM (inactive)
[6]
  EC50: > 160 µM (inactive)

## CCOc1ccc(/N=C/c2c(C)[nH]n(-c3nc4ccccc4[nH]3)c2=O)cc1
BJ [7]
  EC50: 1.22 µM (active)
BJ [8]
  EC50: 2.41 µM (active)
BJ [9]
  EC50: 4.74 µM (inconclusive)
[10]
  EC50: 2.52 µM (active)
BJ [11]
  EC50: > 133 µM (inactive)
INS1
  AC50: 1.98 µM (active)

## COc1ccc(C2CCCN2C(=O)c2sc3ccccc3c2Cl)cc1OC (stereo unspecified)
[12]
  IC50: > 99 µM (inactive)
Caspase-3
  IC50: > 99 µM (inactive)
[13]
  IC50: > 99 µM (inactive)
[14]
  IC50: > 99 µM (inactive)

## Cc1cccc(/N=c2\oc3cc(O)ccc3cc2C(N)=O)c1
[2]
  IC50: 155 µM (inactive)

## Cc1cccc(C)c1NC(=O)Cn1cc(C=O)c2ccccc21
[15]
  IC50: > 100 µM (inactive)

## Cc1cccc(N/N=C/c2cn(Cc3ccccc3)c3ccccc23)c1
[12]
  IC50: > 99 µM (inactive)
Caspase-3
  IC50: > 99 µM (inactive)
[13]
  IC50: > 99 µM (inactive)
[14]
  IC50: > 99 µM (inactive)

## Cc1ccccc1NC(=O)c1ccccc1N(C)S(=O)(=O)c1ccccc1
[16]
  IC50: 0.0922 µM (active)

## COc1cc(-c2cc(C(=O)Nc3ccccc3N3CCOCC3)c3ccccc3n2)cc(OC)c1OC
[16]
  IC50: 0.11 µM (active)
H9c2
  IC50: > 79 µM (inactive)
